1 molecule from PMC6531005 (Science Advances, 2019) can be followed below.

Common to all, as to type: biochemical
One assay concerns the target CDK9 (Homo sapiens, UniProt P50750). Kind of assay: SelectScreen kinase selectivity panel.
For a further assay, the target named is CDK2 kinase (Homo sapiens, UniProt P24941). Kind of assay: enzymatic kinase inhibition assay, CDK2/cyclin E.
The next assay addresses CDC7 kinase (Homo sapiens, UniProt O00311). Kind of assay: TR-FRET.

The structures appear in SMILES notation. Bounds are passed on as bounds.

Chain of CDK9 (P50750 whole entry): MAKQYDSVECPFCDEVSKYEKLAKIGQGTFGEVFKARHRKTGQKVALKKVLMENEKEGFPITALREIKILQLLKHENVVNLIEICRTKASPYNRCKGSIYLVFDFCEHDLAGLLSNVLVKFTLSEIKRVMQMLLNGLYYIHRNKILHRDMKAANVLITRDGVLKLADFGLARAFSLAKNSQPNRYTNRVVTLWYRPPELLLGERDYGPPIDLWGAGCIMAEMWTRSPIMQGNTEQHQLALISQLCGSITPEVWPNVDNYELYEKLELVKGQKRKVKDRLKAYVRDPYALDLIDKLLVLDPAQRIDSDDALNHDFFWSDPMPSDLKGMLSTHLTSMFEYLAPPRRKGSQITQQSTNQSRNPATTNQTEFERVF
Chain of CDC7 kinase (O00311 whole entry): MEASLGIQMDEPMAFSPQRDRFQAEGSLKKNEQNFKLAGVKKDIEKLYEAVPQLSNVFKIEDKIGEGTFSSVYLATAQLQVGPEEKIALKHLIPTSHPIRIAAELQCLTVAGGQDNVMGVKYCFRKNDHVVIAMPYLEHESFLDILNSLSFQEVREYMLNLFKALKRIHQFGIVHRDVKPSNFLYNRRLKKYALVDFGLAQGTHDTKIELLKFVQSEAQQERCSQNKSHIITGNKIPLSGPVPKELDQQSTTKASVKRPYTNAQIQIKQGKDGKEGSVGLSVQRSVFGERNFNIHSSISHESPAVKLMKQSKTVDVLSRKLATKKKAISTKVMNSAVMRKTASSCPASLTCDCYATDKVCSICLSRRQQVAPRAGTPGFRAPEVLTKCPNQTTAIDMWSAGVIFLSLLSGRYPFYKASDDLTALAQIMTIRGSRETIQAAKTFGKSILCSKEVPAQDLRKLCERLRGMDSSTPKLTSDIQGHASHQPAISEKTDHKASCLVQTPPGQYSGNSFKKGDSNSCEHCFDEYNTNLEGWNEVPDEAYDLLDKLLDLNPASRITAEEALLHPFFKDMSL
Chain of CDC7 kinase (Q9UBU7 whole entry partner): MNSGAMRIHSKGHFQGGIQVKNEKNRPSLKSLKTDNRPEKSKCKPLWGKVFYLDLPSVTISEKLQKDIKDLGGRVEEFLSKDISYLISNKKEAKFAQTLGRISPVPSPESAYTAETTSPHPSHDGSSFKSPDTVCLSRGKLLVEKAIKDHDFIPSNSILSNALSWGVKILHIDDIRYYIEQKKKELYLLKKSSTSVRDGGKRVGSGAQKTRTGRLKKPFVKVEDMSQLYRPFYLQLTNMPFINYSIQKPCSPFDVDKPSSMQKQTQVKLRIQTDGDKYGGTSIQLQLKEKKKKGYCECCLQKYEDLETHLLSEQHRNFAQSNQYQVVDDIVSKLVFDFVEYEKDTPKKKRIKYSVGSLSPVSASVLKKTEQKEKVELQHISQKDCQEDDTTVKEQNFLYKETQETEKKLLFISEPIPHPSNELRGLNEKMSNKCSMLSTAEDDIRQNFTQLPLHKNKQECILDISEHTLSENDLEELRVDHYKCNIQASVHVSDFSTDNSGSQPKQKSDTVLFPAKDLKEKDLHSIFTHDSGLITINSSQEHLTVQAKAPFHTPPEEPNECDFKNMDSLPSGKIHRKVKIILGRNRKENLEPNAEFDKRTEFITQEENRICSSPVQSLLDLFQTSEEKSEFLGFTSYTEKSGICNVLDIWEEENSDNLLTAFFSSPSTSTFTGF

In the case of `Cc1n[nH]cc1-c1cc2nc([C@@H]3CC4CCN3CC4)[nH]c(=O)c2s1` [TAK-931, 2-[(2S)-1-azabicyclo[2.2.2]oct-2-yl]-6-(3-methyl-1H-pyrazol-4-yl)thieno[3,2-d]pyrimidin-4(3H)-one hemihydrate], on CDK9, the “SelectScreen kinase selectivity panel (fig. S1B)” value is “CDK9, which is the second high-affinity target of TAK-931 (fig. S1B)”. Moreover, the 50% inhibitory concentration (IC50) (as a rule, the midpoint of a concentration-inhibition curve) is 6.3 µM against CDK2 kinase and below 0.0003 µM against CDC7 kinase.
